Assay results: patent publication US12709637B2, “Regulated synthetic gene activation systems” (TRUSTEES OF BOSTON UNIVERSITY, priority 2023, dated 2026)
Entries after “also recorded” stand apart in the source; their conditions may differ.

Tests used:
iCasp9+ cells = settings: cited from earlier work
[1] = test system: mCherry fluorescent reporter in Jurkat T cells; assay: hhTAD transcription activators, mCherry reporter in Jurkat T cells; format: cell-based; settings: 1 uM GZV or 4-OHT, 72h, compared with p65 and VPR counterparts
From the text: FIG. 6A is a schematic and bar graph showing that the IWS1 TIMs domain increases transcriptional activation in an NS3-comprising synTF in the presence of grazoprevir. FIG. 6B is a schematic and bar graph showing that the IWS1 TIMs domain increases transcriptional activation in an ERT2-comprising synTF in the presence of 4OHT.
The humanized hybrid transcription activator domain (see e.g., SEQ ID NOs: 15-16) when integrated into small-molecule inducible transcriptional activation systems is able to robustly and strongly induce transgene expression in mammalian cells. The humanized hybrid transcription activation domain (hhTAD) was attached to an artificial zinc finger proteins (see e.g., U.S. Pat. No. 10,138,493 B2 and US Patent Publication No. 2020/0377564 A1; the contents of each of which are incorporated herein by reference in their entirety) to either a NS3 or ERT2 domain (see e.g., FIG. 5A). To report transcriptional activation, described herein is a […] mCherry fluorescent reporter (see e.g., FIG. 5B). […]
To evaluate the strength of this hhTAD, Jurkat T cells were generated stably expressing both the transcription activator(s) modified with the hhTAD and fluorescent reporter. […] Reporter cells with were treated 1 uM GZV or 4-OHT, and mCherry reporter fluorescence was measured at 72h (see e.g., FIG. 6A-6B).

[2] = among 2A peptides; cited from earlier work
[3] = test system: mCherry reporter in Jurkat T cells; assay: Loss of function TIMs mutants in GZV-synZiFTR2.0; format: cell-based; settings: GZV induction, 3 days, compared to GZV-synZiFTR2.0 carrying WT TIMs
From the text: FIG. 4A-4B. IWS1 TIMs mechanism of action. (FIG. 4A) IWS1 mutants affecting TIMs employed in this study. WT TIMs domain in GZV-synZiFTR2.0 were replaced by TIMs structural mutant variants (see e.g., SEQ ID NOs: 5-14). The amino acid sequence of the TIMs domain is shown (see e.g., SEQ ID NO: 5). The boxes highlight each of the 3 TIM amino acid sequences (see e.g., SEQ ID NOs: 6-8) and the mutants respectively (see e.g., SEQ ID NOs: 12-14). Different TIM mutations caused loss of interactions with various transcription elongation factors (Transcription factor IIS (TFIIS) and Elongin A (EloA) for the TIM1 mutant; Protein Phosphatase 1 Nuclear Targeting Subunit (PP1-PNUTs) for the TIM2 mutant; lens epithelium-derived growth factor (LEDGF) and H3K36me2/3 binding protein HDGFL2 (HRP2) for the TIM3 mutant). Figure discloses SEQ ID NOS 5-6, 12, 6, 6-7, 7, 13, 7-8, 8, 8, and 14, respectively, in order of appearance. (FIG. 4B) Evaluating loss of function TIMs mutations. GZV-synZiFTR2.04 distinct mutant variants of TIMs were expressed in Jurkat T cells. The circuit outputs were compared to GZV-synZiFTR2.0 carrying WT TIMs. Jurkat T cells were co-transduced with reporter, synZiFTR2.0 and synZiFTR expression lentiviral vectors in an equal ratio. mCherry fluorescence was measured by flow cytometry 3 days after induction by small molecules at the indicated concentrations. Bars represent mean values for three measurements±SD. Statistics represent two-tailed Student's t test; ****P<0.0001.
The TIMs domain contains a series of three unique TIMs that selectively interact with different TND-containing factors. TIM1 interacts with Transcription Factor IIS (TFIIS) and Elongin A (EloA), TIM2 is recognized by the PP1-PNUTS phosphatase, and finally the H3K36me3 readers, lens epithelium-derived growth factor (LEDGF), and H3K36me2/3 binding protein HDGFL2 (HRP2) bind to TIM3. Here, it was investigated which direct interactions between each TIMs and their protein partner is involved in the enhanced transcriptional output by synZiFTR2.0s. […]

CC[C@H](C(=O)N1CCCC[C@H]1C(=O)O[C@H](CCc1ccc(OC)c(OC)c1)c1cccc(OCC(=O)NCCNC(=O)COc2cccc([C@@H](CCc3ccc(OC)c(OC)c3)OC(=O)[C@@H]3CCCCN3C(=O)[C@@H](CC)c3cc(OC)c(OC)c(OC)c3)c2)c1)c1cc(OC)c(OC)c(OC)c1 [AP1903]
GvHD outcome after AP1903 (iCasp9+ cells; patients receiving iCasp9 T cells): complete reversal of GvHD; also recorded: Two of the four patients | reduction in iCasp9+ cells (iCasp9+ cells; phase I trial, four patients with acute GvHD, within 30 minutes of administration): 90%

IWS1 TIMs domain: amino acids 449-492 of IWS1, SEQ ID NO: 5, 44 aa; transcriptional effector domain
mCherry reporter fluorescence [1]: increases their transcriptional activation

P2A: 2A self-cleaving peptide derived from porcine teschovirus-1 2A, SEQ ID NO: 341 (GSGATNFSLLKQAGDVEENPGP; VARIANT 1..3 May be absent)
efficiency of self-cleaving [2]: most efficient

M3: TIM3 mutant, F488A and F491A, SEQ ID NO: 11, in GZV-synZiFTR2.0 (SDKKNEEKDLFGSDSESGNEEENLIADIFGESGDEEEEEATGAN)
mCherry fluorescence output [3]: did not affect GZV-synZiFTR2.0 output

M2: TIM2 mutant, I476A and F477A, SEQ ID NO: 10, in GZV-synZiFTR2.0 (SDKKNEEKDLFGSDSESGNEEENLIADAAGESGDEEEEEFTGFN)
mCherry fluorescence output [3]: ablated the mCherry fluorescence output by TIMs-p65 fusion

M1: TIM1 mutant, L458A and F459A, SEQ ID NO: 9, in GZV-synZiFTR2.0 (SDKKNEEKDAAGSDSESGNEEENLIADIFGESGDEEEEEFTGFN)
mCherry fluorescence output [3]: did not affect GZV-synZiFTR2.0 output
